The values that follow come from publication PMC9275698, “Morindone from Morinda citrifolia as a potential antiproliferative agent against colorectal cancer cell lines” (PLoS ONE, 2022).

Structures are written as SMILES. Where a name gives a salt, the structure may show the parent alone.

For one data set, the system named is HCT116 cells. As to the kind of experiment: MTT cell cytotoxicity assay, HCT116. The class given is cell-based, human. Conditions: for IC50: MTT, 72 hours, mean ± SD; for Selectivity index (SI) HCT116: IC50 in normal cells (CCD841 CoN) / IC50 in HCT116. The procedure: (§1) Three human colorectal cancer cell lines: HT29 cells (colorectal adenocarcinoma with p53 and APC mutation), LS174T cells (colorectal adenocarcinoma with KRAS mutation) and HCT116 cells (colorectal carcinoma with KRAS mutation) as well as normal colon, CCD841 CoN cells were obtained from American Type Cell Culture (Manassas, VA, USA). All cell lines were cultured in an incubator under the condition of 37°C temperature, humidified 5% CO2 air atmosphere. Cells were maintained in Dulbecco’s Modified Eagle Medium (DMEM) (Corning, NY, USA), supplemented with 10% Fetal Bovine Serum (FBS) (Sigma-Aldrich, St Louis, MO, USA), 25mM HEPES (Sangon Biotech, Shanghai, China) and 1% Penicillin/Streptomycin (Merck, Germany).
(§2) HCT116 wells were seeded at 7,500 cells/well while other cells were seeded at 30,000 cells/well in 96 well plates and allowed for 24 hours incubation. Cells were then treated with anthraquinone compounds at series of 2-fold dilution concentrations (50μM, 25μM, 12.5μM, 6.25μM, 3.12μM, 1.56μM, 0.78μM, 0.39μM) for 72 hours. 5-fluorouracil and DOX were used as positive controls in the treatment. Cell cytotoxicity was measured using the MTT Cell Count kit according to the manufacturer’s protocol. Assay was performed in triplicates and repeated in three individual experiments. The absorbance (A) was measured with microplate reader at 570nm wavelength and normalized to control. The half-maximal inhibitory concentration (IC50) value was determined using GraphPad Prism 8 software (GraphPad Software, Inc., CA, USA). Cell viability was calculated as follows: […]

A further data set has as its system LS174T cells. As to the kind of experiment: MTT cell cytotoxicity assay, LS174T. The class given is cell-based, human. As to conditions: for IC50: Homo sapiens, LS174T, MTT, 72 hours, mean ± SD; for Selectivity index (SI) LS174T: IC50 in normal cells (CCD841 CoN) / IC50 in LS174T. The procedure:
as §1, §2
In general terms: Formazan colour is commonly taken as a measure of viable cells.

The test system of the next data set is HT29 cells. As to the kind of experiment: MTT cell cytotoxicity assay, HT29. Conditions: for IC50: Homo sapiens, HT-29, MTT, 72 hours, mean ± SD; for Selectivity index (SI) HT29: IC50 in normal cells (CCD841 CoN) / IC50 in HT29. The class given is cell-based, human. The procedure: as §1, §2
For a further data set, the system named is CCD841 CoN cells. As to the kind of experiment: MTT cell cytotoxicity assay, normal colon cells. The class given is cell-based. As to conditions: Homo sapiens, CCD-841CoN, 72 hours. As for the experimental part: as §1, §2
Data set [1] relates to MCF-7 cells (breast cancer). Conditions: cited from earlier work.
Data set [2] relates to HCT116 cells (colorectal cancer). As to conditions: cited from earlier work.
Data set [3] relates to HepG2 cells (hepatocellular carcinoma). Conditions: cited from earlier work.
In a further data set the test system is C. lipolytica. The arrangement: method as in PMID 21214480. As to conditions: cited from earlier work.
Data set [4] concerns oxacillin-resistant Staphylococcus aureus. The arrangement: method as in PMID 20521552. Conditions: cited from earlier work.

Take `O=Cc1c(O)cc2c(c1O)C(=O)c1ccccc1C2=O` [Nordamnacanthal (1), Nordamnacanthal]: the melting point (in general, the temperature of the solid-liquid transition) was 219 to 222 °C. In the data set on HCT116 cells (Homo sapiens, HCT-116, 72 h), the IC50 (as a rule, the midpoint of a concentration-inhibition curve) is above 50 µM. Besides, the “Selectivity index (SI) HCT116” value in the data set with HCT116 cells is on record as 0.97. Besides, in the data set on LS174T cells, the IC50 is above 50 µM and the “Selectivity index (SI) LS174T” value worked out at 4.79. Further, in the data set with HT29 cells, the IC50 is above 50 µM and the “Selectivity index (SI) HT29” value was determined as 0.42. The same compound showed an IC50 in the data set on CCD841 CoN cells above 50 µM.

As for `COc1c(O)cc2c(c1O)C(=O)c1ccc(C)c(O)c1C2=O` [1,3,5-trihydoxy-2-methoxy-6-methyl anthraquinone], the melting point lay in the range of 235 to 239 °C. In the data set on HCT116 cells (Homo sapiens, HCT-116, 72 h), this compound displayed a 50% inhibitory concentration (IC50) below 25 µM. Moreover, in the data set on HCT116 cells, the “Selectivity index (SI) HCT116” value was determined as 4.55 and the IC50 was found to be 24.57 ± 0.07 µM. In addition, in the data set with LS174T cells, the IC50 is above 50 µM and the “Selectivity index (SI) LS174T” value is reported as 0.97. Besides, in the data set on HT29 cells, the half-inhibitory concentration (IC50) was above 50 µM and the “Selectivity index (SI) HT29” value is 0.03. In the data set with CCD841 CoN cells, the IC50 is above 50 µM.

On to `COc1c(C=O)c(O)cc2c1C(=O)c1ccccc1C2=O` [Damnacanthal (2), Damnacanthal], for which the “Selectivity index (SI) HCT116” value with HCT116 cells stood at 951.60. In addition, the IC50 in the data set on HCT116 cells is 0.74 ± 0.06 µM; with HCT116 cells (listed as damnacanthal), below 25 µM; with LS174T cells, above 50 µM; in the data set on HT29 cells it was 28.17 ± 0.08 µM; in the data set with CCD841 CoN cells, above 50 µM. Besides, the “Selectivity index (SI) LS174T” value with LS174T cells stood at 0.28. In the data set on HT29 cells, the “Selectivity index (SI) HT29” value was determined as 24.85. Moreover, in data set [1], the “Anticancer and antitumor activities towards MCF-7 cells” value was “Good anticancer and antitumor activities”. Also, in data set [2], the “Anticancer and antitumor activities towards HCT116 cells” value was “Good anticancer and antitumor activities”. In addition, the “Anticancer and antitumor activities towards HepG2 cells” value in [3] was “Good anticancer and antitumor activities”.

As for `COCc1c(O)cc2c(c1O)C(=O)c1ccccc1C2=O` [Lucidin-ω-methylether (8), Lucidin-ω-methylether], the melting point lay in the range of 170 to 173 °C. Further, the concentration for half-maximal inhibition (IC50) in the data set on HCT116 cells (Homo sapiens, HCT-116, 72 h) is below 25 µM. For the same compound, in the data set on HCT116 cells, the concentration for half-maximal inhibition (IC50) was determined as 14.88 ± 0.01 µM. The same compound showed a half-maximal inhibitory concentration (IC50) with LS174T cells above 50 µM. Moreover, the IC50 with HT29 cells was above 50 µM. Besides, the IC50 with CCD841 CoN cells was above 50 µM.

Turning to `Cc1ccc2c(c1O)C(=O)c1ccc(O)cc1C2=O` [Sorendidiol (5), Sorendidiol], the IC50 was above 50 µM in the data set on HCT116 cells (Homo sapiens, HCT-116, 72 h); above 50 µM in the data set on LS174T cells; 27.17 ± 0.07 µM in the data set with HT29 cells; above 50 µM with CCD841 CoN cells. For the same compound, in the data set with HCT116 cells, the “Selectivity index (SI) HCT116” value was 7.10. Further, in the data set on HT29 cells, the “Selectivity index (SI) HT29” value was 29.19.

As to `O=c1[nH]cc(F)c(=O)[nH]1` [5-Fluorouracil, 5-fluorouracil, reference compound], the IC50 in the data set on HCT116 cells (Homo sapiens, HCT-116, 72 h) was determined as 5 ± 0.04 µM; with LS174T cells it was 4.16 ± 0.02 µM; in the data set on HT29 cells, 0.2 ± 0.05 µM.

For the compound `COc1cccc2c1C(=O)c1c(O)c3c(c(O)c1C2=O)C[C@@](O)(C(=O)CO)C[C@@H]3O[C@H]1C[C@H](N)[C@H](O)[C@H](C)O1` [Doxorubicin hydrochloride, doxorubicin hydrochloride, reference compound], the concentration for half-maximal inhibition (IC50) with HCT116 cells (Homo sapiens, HCT-116, 72 h) was found to be 0.17 ± 0.04 µM; in the data set on LS174T cells, 2.27 ± 0.04 µM; in the data set on HT29 cells, 0.3 ± 0.06 µM.

On to `Cc1c(O)cc2c(c1O)C(=O)c1ccccc1C2=O` [Rubiadin (6), Rubiadin], for which the IC50 in the data set on HCT116 cells (Homo sapiens, HCT-116, 72 h) was above 50 µM; with LS174T cells, above 50 µM; with HT29 cells, above 50 µM; with CCD841 CoN cells it was above 50 µM.

In turn, `COc1c(CO)c(O)cc2c1C(=O)c1ccccc1C2=O` [Damnacanthol (7), Damnacanthol] registered a melting point of 156 to 158 °C. Besides, the 50% inhibitory concentration (IC50) in the data set on HCT116 cells (Homo sapiens, HCT-116, 72 h) was below 25 µM. Besides, in the data set on HCT116 cells, inhibition was half-maximal at 18.47 ± 0.02 µM (IC50). In the data set on LS174T cells, the IC50 was above 50 µM and the “Selectivity index (SI) LS174T” value is on record as 0.59. Also, in the data set on HT29 cells, the 50% inhibitory concentration (IC50) is above 50 µM and the “Selectivity index (SI) HT29” value turned out to be 1.46. Moreover, the IC50 in the data set on CCD841 CoN cells was above 50 µM.

Take `Cc1ccc2c(c1O)C(=O)c1ccc(O)c(O)c1C2=O` [Morindone (4), Morindone]: the “Selectivity index (SI) HCT116” value with HCT116 cells was found to be 76.25. For the same compound, the half-inhibitory concentration (IC50) in the data set with HCT116 cells was 10.7 ± 0.04 µM; in the data set with HCT116 cells (listed as morindone), below 25 µM; with LS174T cells, 20.45 ± 0.03 µM; in the data set on HT29 cells, 19.2 ± 0.05 µM; in the data set on CCD841 CoN cells, above 50 µM. Moreover, the “Selectivity index (SI) LS174T” value in the data set on LS174T cells was 39.89. Besides, the “Selectivity index (SI) HT29” value with HT29 cells is reported as 42.49. In addition, in the data set with C. lipolytica, the “Antimicrobial activity against C. lipolytica” value is “strong antimicrobial activity”. Further, the “Antimicrobial activity against oxacillin-resistant Staphylococcus aureus” value in [4] is recorded as “strong antimicrobial activity”.
